{
  "source": "ChEMBL document CHEMBL1201862",
  "about": "“PubChem BioAssay data set” (2004)",
  "key": {"[1]": {"molecular_target": "T1, Heat shock factor protein 1 (Mus musculus, UniProt P38532)", "T1 sequence (P38532 whole entry)": "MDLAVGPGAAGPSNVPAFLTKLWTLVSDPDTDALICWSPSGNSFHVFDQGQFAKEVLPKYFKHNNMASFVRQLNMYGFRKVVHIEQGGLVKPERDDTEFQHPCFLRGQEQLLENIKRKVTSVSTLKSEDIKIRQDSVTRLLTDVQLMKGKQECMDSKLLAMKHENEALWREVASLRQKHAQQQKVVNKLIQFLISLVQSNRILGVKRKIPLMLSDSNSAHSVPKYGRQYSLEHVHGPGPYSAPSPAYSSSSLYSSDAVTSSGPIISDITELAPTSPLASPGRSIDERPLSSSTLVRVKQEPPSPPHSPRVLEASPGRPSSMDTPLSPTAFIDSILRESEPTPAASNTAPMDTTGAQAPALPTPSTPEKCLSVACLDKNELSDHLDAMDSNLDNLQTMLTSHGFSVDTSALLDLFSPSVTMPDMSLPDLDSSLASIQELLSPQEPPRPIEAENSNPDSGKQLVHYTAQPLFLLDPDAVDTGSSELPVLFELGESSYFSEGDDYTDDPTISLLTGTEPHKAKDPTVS", "assay": "inhibition of MG132-induced HSE-luciferase signal, confirmation, cell-based, NIH3T3, luminescence, dose retest (AID 2382);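 further: luminescence from HSF1-driven luciferase expression after 8 hours of MG132 stress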", "format": "functional"}, "[2]": {"assay": "cytotoxicity in HEK-293T cells, dose response, cytotoxicity control for TCR NF-kB inhibitor project, luminescence, T-cell screen hits (AID 489026);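 further: cells exposed to compound about 14 hours before the viability readout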", "format": "functional, cell-based"}, "[3]": {"molecular_target": "Luciferin 4-monooxygenase (Photuris pensylvanica, UniProt Q27757)", "sequence (Q27757 whole entry)": "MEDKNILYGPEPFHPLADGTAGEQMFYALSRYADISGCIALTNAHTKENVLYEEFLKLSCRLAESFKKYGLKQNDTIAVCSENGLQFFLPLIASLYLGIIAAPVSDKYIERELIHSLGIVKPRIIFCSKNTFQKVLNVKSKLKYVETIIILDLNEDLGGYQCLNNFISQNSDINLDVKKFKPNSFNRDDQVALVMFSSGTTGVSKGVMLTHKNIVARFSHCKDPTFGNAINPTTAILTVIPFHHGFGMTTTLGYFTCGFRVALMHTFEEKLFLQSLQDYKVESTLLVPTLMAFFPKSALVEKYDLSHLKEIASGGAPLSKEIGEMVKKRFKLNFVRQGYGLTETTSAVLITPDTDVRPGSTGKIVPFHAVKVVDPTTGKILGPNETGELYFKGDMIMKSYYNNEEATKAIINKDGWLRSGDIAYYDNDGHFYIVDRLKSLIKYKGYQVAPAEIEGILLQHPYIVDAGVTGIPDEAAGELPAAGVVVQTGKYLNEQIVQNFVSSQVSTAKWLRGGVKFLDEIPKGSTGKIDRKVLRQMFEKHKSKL", "assay": "firefly luciferase enzyme inhibitors, dose response, counter-screen for HSF-1 reporter inhibitor project, biochemical, Cell Titer Glo, luminescence, cherry-picks (AID 588847)"}, "[4]": {"assay": "A549 cell cytotoxicity, dose response, cytotoxicity control, plate reader, cherry-pick, antagonist series (AID 743412)", "format": "functional, cell-based"}, "[5]": {"assay": "LGR2 antagonists, dose response, cell-based, HEK293, CRE-luciferase reporter, cherry pick, set 2 (AID 743343);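 further: transfected cells were stimulated with diluted bursicon conditioned medium after compound addition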", "format": "functional"}, "[6]": {"assay": "MC4R antagonists, dose response, counter-screen for LGR2 antagonist project, cell-based, plate reader, cherry pick (AID 743444);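 further: transfected HEK 293 cells stimulated with alpha-MSH peptide; potency of inhibitors of the alpha-MSH evoked signal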", "format": "functional"}, "[7]": {"assay": "HEK293 cell cytotoxicity, dose response, cytotoxicity control, plate reader, cherry-picked samples (AID 743446)", "format": "functional, cell-based"}, "HeLa": {"test_system": "HeLa", "assay": "HeLa cell cytotoxicity, dose response, cytotoxicity control for MITF activator project, CellTiter-Glo luminescence, cherry-pick samples (AID 540259)", "format": "functional, cell-based", "conditions": "Homo sapiens"}, "[8]": {"assay": "NIH-3T3 fibroblast cytotoxicity, dose response, cytotoxicity control, cell-based, fluorescence, Alamar Blue, secondary assay (AID 2327);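 further: NIH-3T3 mouse fibroblasts cultured with fluconazole at 8 µg/mL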", "format": "functional"}, "[9]": {"molecular_target": "E3 ubiquitin-protein ligase Mdm2 (Homo sapiens, UniProt Q00987)", "sequence (Q00987 whole entry)": "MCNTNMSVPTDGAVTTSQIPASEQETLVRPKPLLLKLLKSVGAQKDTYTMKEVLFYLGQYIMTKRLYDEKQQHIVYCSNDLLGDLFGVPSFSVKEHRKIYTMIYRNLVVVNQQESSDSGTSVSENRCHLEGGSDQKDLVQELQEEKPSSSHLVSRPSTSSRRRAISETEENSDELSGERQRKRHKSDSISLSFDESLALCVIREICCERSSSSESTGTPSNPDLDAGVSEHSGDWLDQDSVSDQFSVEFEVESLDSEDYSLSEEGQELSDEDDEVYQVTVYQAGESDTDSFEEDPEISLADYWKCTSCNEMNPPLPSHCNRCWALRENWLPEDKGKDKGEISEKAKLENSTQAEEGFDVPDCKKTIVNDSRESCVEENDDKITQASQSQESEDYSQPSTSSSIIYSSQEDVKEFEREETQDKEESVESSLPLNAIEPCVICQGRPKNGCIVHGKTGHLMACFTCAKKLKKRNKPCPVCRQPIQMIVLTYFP", "assay": "enhancers of MDM2-luciferase reporter signal, concentration-effect titration, project on inhibitors of MDM2 ubiquitin ligase, cellular assay, luminescent readout, 384-well plate format (AID 1394);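 further: MDM2 E3 inhibitors raise luminescence so EC50 is for signal enhancement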", "format": "functional"}, "[10]": {"assay": "Luminescence Cell-Based Dose Confirmation HTS to Identify Activators of 5'UTR Stem-Loop Driven Alpha-Synuclein mRNA Translation in H4 Neuroglioblastoma Cells. [Related pubchem assays: 1829 (Project Summary), 1814 (Primary HTS)]", "format": "functional"}, "[11]": {"assay": "Luminescence Cell-Based Dose Response HTS to Identify Activators of Luciferase Translation or Activity in H4 […] Cells. [Related pubchem assays: 1829 (Project Summary), 1814 (Primary HTS)]", "format": "functional"}, "H4": {"test_system": "H4", "assay": "Luminescence Cell-Based Dose Response HTS to Identify Activators of 5'UTR Stem-Loop Driven Prion Protein mRNA Translation in H4 Neuroglioblastoma Cells. [Related pubchem assays: 1829 (Project Summary), 1814 (Primary HTS)]", "format": "functional", "conditions": "Homo sapiens"}, "[12]": {"assay": "C. albicans growth with fluconazole, confirmation, fluorescence, retest (AID 2467)", "format": "functional, cell-based"}, "[13]": {"assay": "microbe, parasite or virus in culture", "format": "functional", "conditions": "Mycobacterium tuberculosis"}, "CHO": {"test_system": "CHO", "assay": "cytotoxicity in TLR9-MyD88 CHO cells, dose response, cytotoxicity control for TLR9-MyD88 binding inhibitor project, cell-based, luminescence (AID 588339);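 further: CHO cells stably coexpressing TLR9 and MyD88 fusions from primary screen; compound exposure lasted 48 hours before viability readout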", "format": "functional, hamster", "conditions": "Cricetulus griseus"}, "INS1": {"test_system": "INS1", "assay": "beta cell apoptosis inhibitors, cytokine rescue, dose response, luminescence, retest (AID 449756);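 further: cell death triggered by IL-1 beta plus TNF-alpha plus IFN-gamma mixture; protective hits raise ATP signal compared with cytokine alone wells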", "format": "functional, cell-based", "conditions": "Rattus norvegicus"}, "[14]": {"molecular_target": "Serine/threonine-protein phosphatase (Candida dubliniensis (strain CD36 / CBS 7987 / NCPF 3949 / NRRLY-17841) (Yeast), UniProt B9W6M3)", "sequence (B9W6M3 whole entry)": "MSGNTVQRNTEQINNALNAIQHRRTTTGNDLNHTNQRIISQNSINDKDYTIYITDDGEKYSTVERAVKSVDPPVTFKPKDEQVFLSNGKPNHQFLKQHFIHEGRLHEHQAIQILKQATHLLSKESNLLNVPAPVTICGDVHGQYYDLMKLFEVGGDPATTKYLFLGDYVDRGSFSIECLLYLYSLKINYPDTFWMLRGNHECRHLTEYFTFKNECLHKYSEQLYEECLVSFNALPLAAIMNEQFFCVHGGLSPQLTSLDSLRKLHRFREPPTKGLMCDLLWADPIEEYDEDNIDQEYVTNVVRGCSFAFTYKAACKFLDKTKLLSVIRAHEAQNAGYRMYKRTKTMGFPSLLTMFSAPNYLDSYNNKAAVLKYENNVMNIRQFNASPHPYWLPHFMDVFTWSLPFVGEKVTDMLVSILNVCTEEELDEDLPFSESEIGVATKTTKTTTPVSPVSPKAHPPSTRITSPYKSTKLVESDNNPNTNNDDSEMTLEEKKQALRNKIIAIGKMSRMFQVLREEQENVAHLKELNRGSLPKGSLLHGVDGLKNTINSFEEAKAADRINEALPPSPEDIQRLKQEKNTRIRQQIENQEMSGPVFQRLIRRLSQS", "assay": "calcineurin pathway inhibitors in yeast reporter, dose response, S. cerevisiae, CDRE-lacZ, luminescence, secondary (AID 2388);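 further: yeast reporter cells carrying a calcineurin-responsive lacZ construct stimulated with calcium chloride; luminescent beta-galactosidase reporter signal in whole cells rather than isolated phosphatase activity; potency for inhibition where a drop in reporter signal means calcineurin blockade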", "format": "functional, cell-based"}, "[15]": {"molecular_target": "T1, Heat shock factor protein 1", "assay": "HSF1 potentiators in luciferase reporter cells, confirmation, cell-based, NIH3T3, luminescence, dose retest (AID 435004);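 further: stress induced by proteasome inhibitor MG132 added 30 min after compound; actives raise luminescence as potentiators of the MG132 stress response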", "format": "functional"}, "[16]": {"molecular_target": "ATP-dependent molecular chaperone HSP82 (Candida albicans (strain WO-1) (Yeast), UniProt C4YTQ8)", "sequence (C4YTQ8 whole entry)": "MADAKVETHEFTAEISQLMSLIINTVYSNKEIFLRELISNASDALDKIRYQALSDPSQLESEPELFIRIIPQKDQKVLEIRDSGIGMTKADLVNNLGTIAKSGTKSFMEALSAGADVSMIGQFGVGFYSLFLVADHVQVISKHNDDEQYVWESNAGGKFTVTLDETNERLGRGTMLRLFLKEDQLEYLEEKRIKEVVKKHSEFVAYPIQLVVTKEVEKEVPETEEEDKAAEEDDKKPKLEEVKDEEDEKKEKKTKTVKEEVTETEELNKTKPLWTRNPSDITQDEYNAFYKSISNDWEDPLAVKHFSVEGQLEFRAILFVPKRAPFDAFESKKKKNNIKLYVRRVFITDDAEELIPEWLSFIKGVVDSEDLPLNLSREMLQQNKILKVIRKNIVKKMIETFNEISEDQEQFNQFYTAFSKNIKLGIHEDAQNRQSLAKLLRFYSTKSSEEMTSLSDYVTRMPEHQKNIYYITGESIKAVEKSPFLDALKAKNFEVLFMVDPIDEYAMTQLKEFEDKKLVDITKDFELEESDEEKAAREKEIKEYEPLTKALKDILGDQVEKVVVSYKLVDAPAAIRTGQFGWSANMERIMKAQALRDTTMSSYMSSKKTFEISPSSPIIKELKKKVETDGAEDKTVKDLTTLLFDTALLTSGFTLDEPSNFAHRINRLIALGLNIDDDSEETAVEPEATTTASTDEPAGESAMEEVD", "assay": "loss of DOC-induced GRE-beta-galactosidase reporter signal, dose response, Hsp90 inhibitor project, S. cerevisiae, luminescence (AID 2400);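 further: beta-galactosidase luminescence from glucocorticoid response element reporter as proxy for Hsp90 function; inhibitor potency where signal loss means Hsp90 inhibition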", "format": "functional, cell-based"}},
  "note": "Activity calls are given as the source filed them.",
  "data": [
    {"smiles": "CC1CCCN(c2ncnc3c2cnn3-c2ccc(Cl)cc2)C1", "note": "(configuration not stated)", "values": [
      {"measurement": "EC50", "setting": "[1]", "value": "< 0.16 µM (active)"},
      {"measurement": "IC50", "setting": "[2]", "value": "> 80 µM (inactive)"},
      {"measurement": "AC50", "setting": "[3]", "value": "1.34 µM (active)"},
      {"measurement": "AC50", "setting": "[4]", "value": "> 52 µM (inactive)"},
      {"measurement": "AC50", "setting": "[5]", "value": "< 0.068 µM (active)"},
      {"measurement": "AC50", "setting": "[6]", "value": "0.155 µM (active)"},
      {"measurement": "AC50", "setting": "[7]", "value": "> 52 µM (inactive)"}
    ]},
    {"smiles": "COc1ccc(COc2ccc3ccc(=O)oc3c2)cc1", "values": [
      {"measurement": "AC50", "setting": "HeLa", "value": "93.8 µM (active)"}
    ]},
    {"smiles": "C=C1C(=O)O[C@@H]2C[C@@H](C)[C@@H]3C4OC4C(=O)[C@@]3(C)[C@@H](O)[C@H]12", "note": "(some centres not stated)", "values": [
      {"measurement": "EC50", "setting": "[8]", "value": "6.66 µM (inconclusive)"},
      {"measurement": "EC50", "setting": "[9]", "value": "11.6 µM (not active)"},
      {"measurement": "EC50", "setting": "[10]", "value": "> 120 µM (not active)"},
      {"measurement": "EC50", "setting": "[11]", "value": "> 120 µM (not active)"},
      {"measurement": "EC50", "setting": "H4", "value": "> 120 µM (not active)"},
      {"measurement": "EC50", "setting": "[12]", "value": "0.644 µM (active)"},
      {"measurement": "CC50", "setting": "[13]", "value": "4.92 µM (active)"},
      {"measurement": "IC50", "setting": "CHO", "value": "2.43 µM (active)"},
      {"measurement": "AC50", "setting": "INS1", "value": "8.02 µM (active)"}
    ]},
    {"smiles": "CCC(C)n1cnc2c(c1=O)c1nc3ccccc3nc1n2Cc1ccc(OC)cc1", "note": "(configuration not stated)", "values": [
      {"measurement": "EC50", "setting": "[8]", "value": "47.7 µM (active)"},
      {"measurement": "EC50", "setting": "[12]", "value": "0.356 µM (active)"},
      {"measurement": "EC50", "setting": "[14]", "value": "> 180 µM (inactive)"},
      {"measurement": "EC50", "setting": "[15]", "value": "> 260 µM (inactive)"},
      {"measurement": "EC50", "setting": "[16]", "value": "14.7 µM (active)"}
    ]}
  ]
}
